Experimental data published in PMC12073402, “A Selective MAP3K1 Inhibitor Facilitates Discovery of NPM1 as a Member of the Network” (Molecules, 2025).

Tests used:
Format in all cases: cell-based
[1] = tested on: NPM1 T199 phosphorylation; test: Western blot of NPM1 T199 phosphorylation in PANC-1 cells; conditions: 2 h
From the text: We further investigated changes in NPM1 phosphorylation in our dataset. Of the NPM1 phosphorylation sites quantified, four sites had significant dose-dependent decreases upon 51-106 treatment: S137, T199, S222, and S227. Only one of these phosphorylation sites, T199, has a commercially available antibody. Importantly, T199 phosphorylation plays an essential role in NPM1 function, as it is required for localization of NPM1 to sites of DNA double-stranded breaks, where it colocalizes with other DNA repair proteins such as γH2AX and RAD51 [38].
Cells were washed with cold 1× PBS and lysed in Radioimmunoprecipitation assay (RIPA) buffer (Cat# 89901; Thermo Fisher Scientific), sodium orthovanadate (Na3VO4) (Cat# 567540-5GM; Sigma-Aldrich; St. Louis, MO, USA), sodium fluoride (NaF) (Cat# 201154-5G, >99% purity; Sigma-Aldrich), β-glycerophosphate (Cat# G9422-10G; Sigma-Aldrich), and 1 mM phenylmethylsulfonyl fluoride (Cat# 10837091001; Sigma Aldrich). The samples were incubated on ice for 30 min, vortexed at 10 min intervals, and centrifuged at 14,000× g for 10 min at 4 °C. The supernatant was collected, and protein was quantified using the BCA Protein Assay kit (Cat# 23225; Thermo Fisher Scientific). […]

[2] = tested on: HCT116 MAP3K1 KO cells; test: PrestoBlue growth inhibition assay
From the text: (§1) To investigate the target dependency of 51-106 activity, MAP3K1 was genetically knocked out (KO) in HCT116 cells using CRISPR-Cas9 technology (Gene Editing and Screening Core Facility, Memorial Sloan Kettering Cancer Center). The HCT116 cell line was chosen because it is predominantly diploid, allowing for a more predictable outcome when utilizing CRISPR technology compared with cell lines with aneuploidy. […] Western blot analysis confirmed the absence of MAP3K1 protein expression in KO cells compared to non-targeting control (NTC) MAP3K1 wild-type (WT) cells (Figure 3C). The MAP3K1 primary antibody used binds to residues 50 and 100 of the N-terminus of MAP3K1. HCT116 MAP3K1 WT and MAP3K1 KO cells were subjected to PrestoBlue growth inhibition assay with 51-106 treatment. […] Further optimization of 51-106 and/or the use of emerging methods such as DNA-encoded library based screens followed by machine learning (DEL-ML) along with a comprehensive suite of biophysical and biochemical screens should be employed to develop a MAP3K1 chemical probe.
(§2) A suspension of in 90 μL media was plated per well in clear, flat-bottomed, sterile, 96-well tissue culture plates (Cat# 12-565-438; Fisher Scientific, Waltham, MA, USA). The cells were allowed to adhere overnight in a humidified 5% CO2 incubator at 37 °C. Drug working solutions were prepared from 10 mM DMSO (Cat# BP231; Fisher Scientific) stocks. Drugs were added in 6 dilutions in triplicates. Ten μL of the working solution was added to each well in the plate to yield a final concentration of 20—0.63 μM drug in 1% DMSO. Blank DMSO controls were also included. […] Fluorescence (Ex 560, Em 590) was measured on a plate reader (Spectramax M5e; Molecular Devices) to determine T0. […] Fluorescence was measured on a plate reader. Wells with 1% DMSO were used to determine T100. % Growth was calculated as [(Fluorescence read of a well − T0)/(T100 − T0)] ∗ 100. The data were plotted using Prism V 9.1.0, and the IC50 values were determined using a four-parameter Logistic Curve Fitting function.

[3] = tested on: HCT116 MAP3K1 WT cells; test: PrestoBlue growth inhibition assay; conditions: Homo sapiens, HCT-116, 72 h
From the text: as §1, §2

Question: For `Cn1cc(-c2cnc3ccc(NC(=O)Nc4ccc(F)c(C(F)(F)F)c4)cc3n2)cn1` [51-106, 1-(4-Fluoro-3-(trifluoromethyl)phenyl)-3-(3-(1-methyl-1H-pyrazol-4-yl)quinoxalin-6-yl)urea], which “NPM1 T199 phosphorylation (Western blot)” value [1] is on record?
Answer: Decreased phosphorylation in NPM1 T199

Question: And the “increase in IC50 in MAP3K1 KO cells” value ([2]; HCT116 MAP3K1 KO versus WT)?
Answer: 5 fold

Question: What about the IC50 ([2]; Homo sapiens, HCT-116, 72 h, HCT116 MAP3K1 KO, 72 h, PrestoBlue) of the same compound?
Answer: ~8.9 µM

Question: What about the IC50 [3] of the same compound?
Answer: ~1.8 µM
